Reference: patent publication US20240108590A1, “MAINTENANCE OF PROGRAMMED CHRONIC LIVER INJURY OF FAH GENE-DEFICIENT ANIMALS AND APPLICATION THEREOF IN PREPARATION OF HETEROLOGOUS LIVER MODELS” (Jiangsu University, priority 2020, published 2024)
Values belong to the molecule of their own block, whether it stands above or below them.

Tests used:
UGT2B7 [1] = assay: UGT2B7 metabolism test in vivo; set-up: species or system rat; conditions: rats with liver humanization vs control group, after oral AZT
Method: Liver humanized and […] FRG rats were orally administered 15 mg/kg zidovudine (Wako), and peripheral blood was collected after 0, 0.5, 1, 2, 4 and 8 hours. After 30 μl of plasma was diluted 2 fold with PBS, the contents of substrates and metabolites were detected by LC-MS/MS (Agilent 1200 HPLC and ABI 4000 mass-spectrometer).

UGT2B7 [2] = target: T1, UGT2B7 (Homo sapiens, UniProt P16662); conditions: in human; cited from earlier work
T1 sequence (P16662 24-529): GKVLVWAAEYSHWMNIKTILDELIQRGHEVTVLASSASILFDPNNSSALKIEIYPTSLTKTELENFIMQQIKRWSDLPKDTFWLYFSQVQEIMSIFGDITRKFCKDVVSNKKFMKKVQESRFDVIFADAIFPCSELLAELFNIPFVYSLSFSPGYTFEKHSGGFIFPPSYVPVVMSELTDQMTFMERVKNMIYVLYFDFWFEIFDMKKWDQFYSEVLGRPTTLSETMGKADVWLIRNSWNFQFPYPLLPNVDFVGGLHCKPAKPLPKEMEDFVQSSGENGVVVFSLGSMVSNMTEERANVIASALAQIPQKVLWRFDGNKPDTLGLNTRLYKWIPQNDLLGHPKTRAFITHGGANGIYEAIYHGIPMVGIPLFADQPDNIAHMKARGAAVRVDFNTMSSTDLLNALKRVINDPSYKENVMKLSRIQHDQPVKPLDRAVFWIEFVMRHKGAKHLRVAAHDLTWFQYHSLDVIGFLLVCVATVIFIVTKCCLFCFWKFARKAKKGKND

UGT2B7 [3] = conditions: in rats; cited from earlier work
FRG rats = assay: Liver function test (serum ALT and AST); assay type: in vivo, rat
Method: The content of alanine aminotransferase (ALT) and aspartate aminotransferase (AST) in rat serum was measured according to the instructions of biochemical analyzer FUJI DRI-CHEM 7000V (Fujifilm. Japan).

Afp = assay: Quantitative qPCR of rat Afp gene in liver; assay type: in vivo; conditions: long-term programmed NTBC controlling (5+4 and 7+4)
Method: 1 μg RNA was reverse-transcribed into cDNA with Revert Aid RT kit according to manufacturer's instructions. According to the instructions of THUNDERBIRD SYBR qPCR Mix kit, cDNA was amplified and quantitatively analyzed on a quantitative PCR machine. Relative expression levels of target genes were based on ACTB as an internal reference. All data were repeated at least twice.

rat livers [4] = assay: Sirius red staining, degree of liver fibrosis; assay type: in vivo; conditions: programmed NTBC 7+4 compared with 5+4
[5] = test system: Fah−/−Rag2−/−IL2rg−/− rats (FRG rats); assay: Survival of FRG rats under NTBC supply / programmed NTBC controlling; assay type: in vivo, rat
Method: Fah^−/−Rag2^−/−IL2rg^−/− rats (FRG rats) were housed in the Experimental Animal Center of Jiangsu University.
In the past feeding, FRG rats were daily supplied with 5-8 mg/L. In the present disclosure, the lowest dose of 5 mg/L NTBC was set as 100% NTBC; According to the weight (250-300 g) and the amount of water (25-50 ml/day) of rats, we can get: • 4% NTBC: equivalent to an average of 0.03 mg/kg/day; • 100% NTBC: equivalent to an average of 0.75 mg/kg/day. • (2) The transplantation was performed under an anesthesia machine using isoflurane. The rat was fixed with its abdomen facing upward, and cleaned and disinfected with iodine and alcohol after dehairing. • (3) By cutting the epidermis and muscle layers, the hepatic portal vein was found. 2×10^6 human primary hepatocytes (resuspended in 800 μl DMEM+10% FBS) were slowly injected with a 26G needle. After completing the injection and paused for a few seconds, the needle was then pulled out, with the needle port quickly pressed with a sterile cotton swab. • (4) After pressing for about 1 minute, with no blood effusion be observed, the muscle and epidermis were sutured and the wound was disinfected with alcohol cotton.
The optimal NTBC maintenance concentration was determined by comparing the survival rate of rats at different NTBC concentrations (0%, 1%, 4%, 10%, 100%).
Due to a long period of the humanization process and in order to further improve the long-term survival rate of rats under liver injury, the inventors designed a series of NTBC dosage regimens, which are called Programmed NTBC controlling scheme with a fixed cycle period (Programmed NTBC controlling, NTBC^P), including 5, 7 and 9 days of maintenance in 4% NTBC conditions, respectively, and 4 days of 100% NTBC recovery after that to alleviate accumulated liver injury (FIG. 2C).

humanized livers = assay: Detection of humanized liver tumorigenesis (liver/bodyweight ratio, histology, AFP); conditions: NTBC^P, 7 months after PHH transplantation
Method: Under the programmed NTBC controlling scheme, NTBC^P, (7+4: 7 days of 4% NTBC+4 days of 100% NTBC cycle; and Retrorsine pretreatment) mentioned above, humanized livers were obtained and liver/bodyweight ratios were calculated 7 months after transplantation of PHH in FRG rats.

[6] = test system: primary human hepatocytes (PHH); assay: Measurement of human albumin secretion in serum of PHH-transplanted rats (ELISA); assay type: in vivo, rat
Method: 100 μl of rat peripheral blood was collected through the tail vein, and after coagulation at room temperature, centrifuged at 400-g for 10 minutes, with the supernatant collected to obtain serum. The secretion level of human albumin was tested according to the instructions of the Human Albumin ELISA Quantitation Set kit. Serum was diluted 10-100000 times according to the actual concentration, so that the calculated value falls within the linear range of the standard curve to obtain accurate values.
(§1) 12. Primary Hepatocyte Transplantation and Programmed NTBC Circulation • (1) Preparation before transplantation: Female FRG rats aged 7-8 weeks were intraperitoneally injected with 30 mg/kg Retrorsine 2 weeks before transplantation, and the concentration of NTBC in daily water was reduced from the normal maintenance concentration (5˜8 mg/L) to low concentration (0.2 mg/L) 1 week before transplantation. When the programmed NTBC cycle began, daily NTBC water was provided according to the method of 0.2 mg/L×7 days+5 mg/L×4 days (one cycle period of 11 days in total).

[7] = test system: primary human hepatocytes (PHH); assay: Repopulation rate of human hepatocytes in FRG rat livers (hNuclei immunostaining); assay type: in vivo; conditions: cyclic NTBC withdrawal/administration based on stepped withdrawal or body weight change, Fah-deficient rats, preliminary tests
Method: as §1
By immunostaining of the human-specific marker hNuclei, the repopulation rates of humanized rat livers can be calculated.

[8] = test system: hALB-positive hepatocytes; assay: Ki67 and hALB counterstaining of humanized livers; assay type: in vivo, rat; conditions: NTBC^P, 7 months after transplantation
Method: 8. Immunofluorescence Staining • (1) Frozen sections (7 μm) were fixed in 4% PFA at room temperature for 10 minutes, or in methanol:acetone (1:1) at −30° C. for 30 minutes. • (2) Wash three times with 0.1% tween-PBS for 5 minutes each time. • (3) 10% goat or donkey serum was used for blocking for 60 minutes at room temperature. • (4) The primary antibody was used for incubation overnight at 4° C. • (5) Wash three times with 0.1% tween-PBS for 5 minutes each time. • (6) The secondary antibody conjugated with fluorescein was used for incubation at room temperature for 60 minutes. • (7) Wash three times with PBS for 5 minutes each time. • (8) DAPI was added and the sections were mounted by mounting medium and preserved.

rat livers [9] = assay: Ki67 staining of rat livers with or without RS pretreatment; assay type: in vivo; conditions: RS pretreatment vs none, after 2 months of programmed NTBC controlling
Method: 7. Immunohistochemistry • (1) The steps of dewaxing and rehydration are the same as above. • (2) Draw a circle around the sample with an ImmunoPen, drop a drop of 3% H2O2 for 15 minutes at room temperature for blocking endogenous peroxidase. • (3) Wash twice with PBS for 5 minutes each time. • (4) The blocking was carried with 1:20 Normal horse serum (dissolved in 1% BSA-PBS), incubated at room temperature for 20 minutes and washed for 3 times with PBS. • (5) The primary antibody was added, then the slices were put in a humid box, sealed and kept overnight at 4 degrees. • (6) Wash three times with PBS for 5 minutes each time. • (7) Secondary antibody was added and incubated at room temperature for 30 minutes. Wash three times with PBS for 5 minutes each time. • (8) AB solution in ABC kit (1:100 dilution of solution A and B) was added and incubated at room temperature for 30 minutes. Wash three times with PBS for 5 minutes each time. • (9) DAB coloration was carried and the time for coloration was adjusted according to different antibodies. • (10) Hematoxylin counterstaining for 20 minutes. Rinse with tap water for half an hour. • (11) Gradient dehydration: 50% ethanol, 70% ethanol, 80% ethanol, 90% ethanol, 100% ethanol, each for 2 minutes. • (12) After 15-30 minutes of xylene, sections were sealed with neutral resin and saved. […]

AZT-5′-glucuronide concentration (UGT2B7 [1]): significantly higher
Molecule: Cc1cn([C@H]2C[C@H](N=[N+]=[N-])[C@@H](CO)O2)c(=O)[nH]c1=O [AZT, zidovudine]
AZT metabolized to AZT-5′-glucuronide (UGT2B7 [2]): 75%
metabolic conversion rate of AZT to AZT-5′-glucuronide (UGT2B7 [3]): 10%

Molecule: O=C1CCCC(=O)C1C(=O)c1ccc(C(F)(F)F)cc1[N+](=O)[O-] [NTBC, 2-(2-nitro-4-trifluoromethylbenzoyl)-1.3 cyclohexanedione]
levels of ALT and AST (FRG rats; 4% NTBC compared with 10% NTBC): higher levels of ALT and AST
levels of ALT and AST (FRG rats; programmed NTBC 7+4 compared with 5+4): significantly higher
expression of rat liver oncogene Afp (Afp): did not lead to abnormal upregulation
degree of liver fibrosis (rat livers [4]): more significant
median survival time ([5]; NTBC concentration 4% of the maintenance dose (5 mg/L)): 22 days
rats surviving for at least 20 weeks ([5]; PHH-transplanted FRG rats, NTBC^P (7+4) with Retrorsine pretreatment): 6/7
healthy survival of FRG rats ([5]; maintenance of 100% NTBC (5 mg/L in daily water)): at least 1.5 years
AFP gene and protein levels (humanized livers): no abnormal up-regulation
tumor formation (histology) (humanized livers): no tumor formation
liver/bodyweight ratio (humanized livers; vs nontransplanted controls): not significantly increased
human albumin secretion level, mean ([6]; NTBC^P (7+4) with Retrorsine pretreatment, 7 months after PHH transplantation): 1.7 ± 0.3 mg/mL
proportion of human hepatocyte repopulation [7]: less than 10%
proportion of Ki67-positive cells in hALB-positive hepatocytes [8]: more than 10%

Molecule: Retrorsine
proportion of Ki67 positive cells in rat livers (rat livers [9]): significantly lower
human albumin secretion level ([6]; RS pretreatment vs none, within 4 weeks after PHH transplantation, NTBC 7+4): increased significantly
human albumin secretion level ([6]; Retrorsine combined with partial hepatectomy, before development of NTBC^P scheme): 90 µg/mL
